Molecular target: T1, FYN (Homo sapiens, UniProt P06241)
T1 construct: purchased Thermo Fisher Scientific (Life Technologies) SelectScreen
Experiment: SelectScreen Z'LYTE
Format: biochemical
Outline: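 Compound tested in SelectScreen activity assays, Z'LYTE for CSF1R, CDK1/cyclin B and MAP2K6 and Adapta for CAMK1. ATP for CAMK1 was listed as 10, and Km app was used for CSF1R. Results are expressed in percent.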

T1 sequence (P06241 whole entry): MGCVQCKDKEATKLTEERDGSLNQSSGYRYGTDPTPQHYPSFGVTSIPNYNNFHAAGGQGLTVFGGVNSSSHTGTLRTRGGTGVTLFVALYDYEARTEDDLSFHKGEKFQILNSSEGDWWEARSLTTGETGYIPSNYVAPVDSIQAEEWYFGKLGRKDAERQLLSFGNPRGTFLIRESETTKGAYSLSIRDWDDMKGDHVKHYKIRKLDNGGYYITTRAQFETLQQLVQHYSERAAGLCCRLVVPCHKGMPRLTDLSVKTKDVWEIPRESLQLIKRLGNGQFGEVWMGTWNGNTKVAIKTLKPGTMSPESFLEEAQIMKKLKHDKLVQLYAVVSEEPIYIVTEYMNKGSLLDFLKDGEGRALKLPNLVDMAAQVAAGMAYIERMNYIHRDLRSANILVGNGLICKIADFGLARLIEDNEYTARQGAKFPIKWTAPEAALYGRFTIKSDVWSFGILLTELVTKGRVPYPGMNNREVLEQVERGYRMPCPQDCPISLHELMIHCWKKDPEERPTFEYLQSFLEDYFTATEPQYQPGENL

CN(C(=O)CN1CCOCC1)c1ccc2sc3c(-c4cccc5c(=O)cc(N6CC7CCC(C6)O7)oc45)cccc3c2c1 [NU5455]
inhibition at 1 µM: 8.3%
